Experimental data reported in patent publication EP2876156A1 (COMMISSARIAT A L'ENERGIE ATOMIQUE ET AUX ENERGIES …, priority 2013, dated 2015).
Read-outs that look alike come from different tables or passages of the source.

Legend:
Format in all cases: biochemical
ENZ2 SEQ ID NO:2 = target: T1, ENZ2 SEQ ID NO:2 (Flavobacterium johnsoniae, UniProt A5FF23)
T1 construct: His6 (hexahistidine, inserted after the initial methionine) (N); made in house; host or cells: E. coli BL21(DE3) plysE
T1 sequence (A5FF23 1-370): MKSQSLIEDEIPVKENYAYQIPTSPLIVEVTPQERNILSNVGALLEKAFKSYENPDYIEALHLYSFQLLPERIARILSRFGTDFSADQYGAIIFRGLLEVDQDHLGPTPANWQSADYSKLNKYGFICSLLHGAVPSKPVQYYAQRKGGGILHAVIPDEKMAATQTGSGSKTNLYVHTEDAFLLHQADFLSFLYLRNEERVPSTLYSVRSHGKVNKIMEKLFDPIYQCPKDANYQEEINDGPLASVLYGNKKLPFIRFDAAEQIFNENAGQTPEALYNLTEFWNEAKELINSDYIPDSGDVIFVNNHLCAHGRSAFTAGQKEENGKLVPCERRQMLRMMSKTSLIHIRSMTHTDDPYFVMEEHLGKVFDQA
Procedure: (§1) Enzymatic reaction medium (0.2 µmole, leq.), borate buffer 0,2M pH 7.7 (80 µL) and Fmoc-Cl solution7.5 mM in acetone (100 µL, 0.75 µmole, 3.75 eq) were hand shaked in a closed 1.50 mL eppendorf for one minute. The aqueous layer was extracted with petroleum ether (3*1 mL) to eliminate excess of Fmoc-Cl. 70 µL of the aqueous phase were withdrawn, diluted with 70 µL of acetonitrile and injected into the HPLC. For substrates with two amine functions, 100 µL of Fmoc-Cl solution 15 mM were used.
(§2) Conditions for HPLC analysis: Atlantis® T3 (3 µm 4.5*150 mm) at 35°C with the gradient 50-86% eluent B (MeCN + 0.1% TFA) and eluent A (H2O + 0.1% TFA) in 20 min at 1 mL/min.
(§3) Enzymes (0.08 mg/mL) were screened against substrates (molar ratio α-ketoglutarate/substrate 15/10) in Hepes buffer 50 mM pH 7,5, with Mohr's salt at 1mM and without sodium ascorbate, at room temperature for three hours. The potential conversions of the substrates were determined by HPLC after Fmoc-Cl derivatization as section III here above.

ENZ3 SEQ ID NO:3 = target: T2, ENZ3 SEQ ID NO:3 (Chitinophaga pinensis, UniProt C7PLM6)
T2 construct: His6 (hexahistidine, inserted after the initial methionine) (N); made in house; host or cells: E. coli BL21(DE3) plysE
T2 sequence (C7PLM6 1-382): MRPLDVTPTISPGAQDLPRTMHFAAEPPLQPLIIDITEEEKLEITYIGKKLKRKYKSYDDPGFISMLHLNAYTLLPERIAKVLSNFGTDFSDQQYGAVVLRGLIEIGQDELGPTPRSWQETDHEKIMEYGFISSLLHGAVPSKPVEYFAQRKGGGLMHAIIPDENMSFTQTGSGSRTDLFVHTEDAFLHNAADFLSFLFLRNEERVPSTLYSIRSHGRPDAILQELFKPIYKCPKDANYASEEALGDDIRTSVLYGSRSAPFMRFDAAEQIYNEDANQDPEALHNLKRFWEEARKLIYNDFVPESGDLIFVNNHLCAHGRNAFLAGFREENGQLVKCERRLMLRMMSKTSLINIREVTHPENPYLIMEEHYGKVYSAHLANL
Procedure: as §1, §2, §3

ENZ1 SEQ ID N°1 = target: T3, ENZ1 SEQ ID N°1 (Catenulispora acidiphila, UniProt C7QJ42); assay: Substrate selectivity screening of hydroxylase (conversion by HPLC after Fmoc-Cl derivatization)
T3 construct: His6 (hexahistidine, inserted after the initial methionine) (N); made in house; host or cells: E. coli BL21(DE3) plysE
T3 sequence (C7QJ42 1-358): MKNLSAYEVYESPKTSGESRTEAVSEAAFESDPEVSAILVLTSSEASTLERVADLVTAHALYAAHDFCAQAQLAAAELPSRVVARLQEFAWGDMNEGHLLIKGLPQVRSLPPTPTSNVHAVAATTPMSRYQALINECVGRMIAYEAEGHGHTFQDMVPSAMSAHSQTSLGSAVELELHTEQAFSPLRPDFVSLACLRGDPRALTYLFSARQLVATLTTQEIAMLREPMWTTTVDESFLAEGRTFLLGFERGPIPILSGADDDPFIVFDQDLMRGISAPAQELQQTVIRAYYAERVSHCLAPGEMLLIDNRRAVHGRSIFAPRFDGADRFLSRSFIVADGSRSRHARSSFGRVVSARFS
Procedure: as §1, §2, §3

ENZ4 SEQ ID NO:4 = target: T4, ENZ4 SEQ ID NO:4 (Catenulispora acidiphila, UniProt C7Q942); assay: as above
T4 construct: His6 (hexahistidine, inserted after the initial methionine) (N); made in house; host or cells: E. coli BL21(DE3) plysE
T4 sequence (C7Q942 1-343): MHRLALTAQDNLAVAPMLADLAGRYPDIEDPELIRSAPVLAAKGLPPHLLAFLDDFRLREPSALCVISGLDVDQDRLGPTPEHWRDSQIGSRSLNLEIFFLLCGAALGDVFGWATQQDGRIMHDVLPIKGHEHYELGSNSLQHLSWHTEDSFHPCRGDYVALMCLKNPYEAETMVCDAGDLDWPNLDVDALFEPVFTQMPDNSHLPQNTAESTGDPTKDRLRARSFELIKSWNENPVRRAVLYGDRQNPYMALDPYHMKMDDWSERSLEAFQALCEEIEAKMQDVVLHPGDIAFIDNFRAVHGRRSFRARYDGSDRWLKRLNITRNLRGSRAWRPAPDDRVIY
Procedure: as §1, §2, §3

[1] = enzyme 0.08 mg/mL, molar ratio α-ketoglutarate/substrate 15/10, Hepes buffer 50 mM pH 7,5, Mohr's salt 1mM, without sodium ascorbate, room temperature, three hours

Row | Structure (SMILES) | potential conversions of the substrates, ENZ2 SEQ ID NO:2 (ENZ2 SEQ ID NO:2; [1]) | potential conversions of the substrates, ENZ3 SEQ ID NO:3 (ENZ3 SEQ ID NO:3; [1]) | potential conversions of the substrates, ENZ1 SEQ ID N°1 (ENZ1 SEQ ID N°1; [1]) | potential conversions of the substrates, ENZ4 SEQ ID NO:4 (ENZ4 SEQ ID NO:4; [1]) | potential conversions of the substrates, ENZ2 SEQ ID NO:2 (ENZ2 SEQ ID NO:2; pH 7) | potential conversions of the substrates, ENZ3 SEQ ID NO:3 (ENZ3 SEQ ID NO:3; pH 7) | potential conversions of the substrates, ENZ1 SEQ ID N°1 (ENZ1 SEQ ID N°1; pH 7) | potential conversions of the substrates, ENZ4 SEQ ID NO:4 (ENZ4 SEQ ID NO:4; pH 7)
1 | NC(CCCC(=O)O)C(=O)O (stereo not drawn) [2-aminoadipic acid] | negative | negative | negative | negative | – | – | – | –
2 | CCCCCC(N)C(=O)O (stereo not drawn) [2-aminoheptanoic acid] | negative | negative | negative | negative | – | – | – | –
3 | NCCCCCC(=O)O [6-aminohexanoic acid] | negative | negative | negative | negative | – | – | – | –
4 | NCCC[C@H](O)[C@H](N)C(=O)O [(3S)- hydroxy-L-lysine] | positive | positive | – | negative | – | – | – | –
5 | NC[C@H](O)CC[C@H](N)C(=O)O [(5R)- hydroxy-L-lysine] | positive | positive | positive | negative | – | – | – | –
6 | NCCCCCN [Cadaverine] | negative | negative | negative | negative | – | – | – | –
7 | N=C(N)NCCC[C@@H](N)C(=O)O [D-arginine] | negative | negative | negative | negative | – | – | – | –
8 | NCCCC[C@@H](N)C(=O)O [D-lysine] | negative | negative | negative | negative | – | – | – | –
9 | N[C@H]1CCCCNC1=O [L-(-)-α-Amino-ε-caprolactam] | negative | negative | negative | negative | – | – | – | –
10 | NCCCC[C@H](NC(=O)[C@@H](N)CCCCN)C(=O)O [L-Lysil-L-lysine] | negative | negative | negative | negative | – | – | – | –
11 | COC(=O)[C@@H](N)CCCNC(=N)N [L-arginine methyl ester] | negative | negative | negative | negative | – | – | – | –
12 | NC(=O)NCCC[C@H](N)C(=O)O [L-citrulline] | negative | negative | negative | negative | – | – | – | –
13 | COC(=O)[C@@H](N)CCCCN [L-lysine methyl ester] | negative | negative | negative | negative | – | – | – | –
14 | COC(=O)[C@@H](N)CCCN [L-ornithine methyl ester] | negative | negative | negative | negative | – | – | – | –
15 | CC(=O)N[C@@H](CCCNC(=N)N)C(=O)O [Nα-acetyl-L-arginine] | negative | negative | negative | negative | – | – | – | –
16 | CC(=O)N[C@@H](CCCCN)C(=O)O [Nα-acetyl-L-lysine] | negative | negative | negative | negative | – | – | – | –
17 | CC(=O)N[C@@H](CCCN)C(=O)O [Nα-acetyl-L-ornithine] | negative | negative | negative | negative | – | – | – | –
18 | C[N+](C)(C)CCCC[C@H](N)C(=O)O [Nε-Me3-L-lysine] | negative | negative | negative | negative | – | – | – | –
19 | CNCCCC[C@H](N)C(=O)O [Nε-Me-L-lysine] | negative | negative | negative | negative | – | – | – | –
20 | NCCCCN [Putrescine] | – | – | – | – | negative | negative | negative | negative
21 | NCCSC[C@H](N)C(=O)O [Thia-L-lysine] | positive | positive | negative | negative | – | – | – | –
22 | NCCC[C@H](N)CC(=O)O [β-L-lysine] | negative | negative | negative | negative | – | – | – | –
